We go through 1 molecule from patent publication US10662194B2, “Substituted 6-anilino-9-heterocyclylpurine derivatives for inhibition of plant stress” (UNIVERZITA PALACKEHO V OLOMOUCI, priority 2014, dated 2020).

Data set [1] concerns Salmonella typhimurium strains TA100 and TA98. Nature of the data set: Ames MPF 98/100 Mutagenicity Assay. The class given is cell-based. Conditions: up to 100 μM, +/−S9, FIG. 12. The method, then: The compound 12 was tested using Ames MPF™ 98/100 Mutagenicity Assay kit (Aniara, Ohio) that is employing Salmonella typhimurium strains TA100 (for the detection of base substitution mutations) and TA98 (for the detection of frameshift mutations) according to the instructions for use.

Data set [2] is described as follows: Calcein AM viability/cytotoxicity assay, MRC-5. Conditions: human, MRC-5 lung fibroblasts; MRC-5, 72 h, FIG. 11; read-out: IC50, concentration reducing number of viable cells to 50%. The data set is classed as cell-based. An excerpt: Absence of toxic effects against mammalian (especially human) cell lines in a wide concentration range is one of the requirements on compounds intended for use in agriculture and medicine. Because toxic compounds negatively influence metabolic processes in cells, many standard cytotoxicity assays are based on measurement of metabolisation rate of various artificial substrates. Resulting product is then quantified e.g. by means of spectrometry. The assays can be easily modified for use in 96-well plates. For evaluation of cytotoxic effect of compounds of this invention, a microtiter assay based on quantification of metabolisation of Calcein AM was used. The assay is widely used in drug screening programs and in chemosensitivity testing. In live cells, Calcein AM is enzymatically hydrolysed and accumulation of resulting calcein is manifested by green fluorescence. The cytotoxicity of the studied compounds was determined with human fibroblast lines MRC-5 (lung fibroblasts) and BJ (foreskin fibroblasts). […] The fluorescence of the live cells was measured at 485 nm/538 nm (excitation/emission) with a Fluoroskan Ascent microplate reader (Labsystems). […]

Data set [3] deals with shoot rosettes of Arabidopsis. Nature of the data set: Leaf chlorophyll degradation in dark-incubated shoot rosettes. The class given is in vivo. The following applies: 6 days in the dark. The method, then: The effect of the compound 12 on retention of chlorophyll in the dark treated plants was tested using app. 18 DAG (days after germination) old Arabidopsis plants grown in vitro on standard MS medium (16 h/8 h light/dark regime, light intensity 120 μmol·m^−l·s^−1). Shoots of the plants were excised from the roots and the whole rossetes were placed into 6-well plate (one rosete per well) into water (3 mL per well) containing 0.01% DMSO (solvent control), or compound 12, cytokinin BAP and CKX inhibitor INCYDE (2-chloro-6-(3-methoxyanilino)purine), in concentrations of 0.01, 0.1, 1 and 10 μM. The plates were then incubated in the dark for 6 days at 25° C. After incubation chlorophyll from each rosette was extracted into 1.8 mL of 80% ethanol, during 30 min of heating to 80° C. The chlorophyll content in extracts was measured spectrofotometricaly at 665 nm. […] In this concentration the rosettes kept around 95% of chlorophyll.

The subject of data set [4] is wild-type Arabidopsis plants. The data set can be described thus: In vitro root growth of wild-type Arabidopsis plants. The following applies: 0.1 μM in MS medium, FIG. 6. The class given is in vivo. The method, then:
As shown in previous example presence of compound 12 in the growth medium has positive effect on the root growth of cytokinin-deficient Arabidopsis plants. This effect was further studied using wild-type Arabidopsis plants and compared with biologically and structurally relevant compounds, a cytokinin BAP and a CKX inhibitor INCYDE. […] Arabidopsis seedlings were grown in vitro on a standard MS medium containing 0.1 μM cytokinin BAP, the same concentration of compound 12 and the same concentration of CKX inhibitor INCYDE (2-chloro-6-(3-methoxyanilino)purine).

Data set [5] concerns winter rapeseed variety Benefit. Nature of the data set: Seed coating, emergence and freezing tolerance of winter rapeseed (field experiment). The data set is classed as in vivo. Conditions: 50 μM seed coating. The method, then: To evaluate the effect of seed coating with compound 12 on yield forming traits of winter rapeseed field plot experiment was performed in season 2010/2011 on locality Opava, Czech Republic. Seeds of winter rapeseed variety Benefit (Selgen) were coated with 50 μM concentration of compound 12 mixed into the seed coating treatment Cruiser OSR (Syngenta; 15 L of solution per 1000 kg of seeds), seeds coated with only Cruiser OSR were used for control variant. The seeds were dried and then sown in the sowing rate 700.000 seeds per hectare in 4 replications per each variant in randomized positions (each replication was 10 square meter plot). In the experiment plant emergence, freezing tolerance and final seed yield were scored. The frost tolerance was estimated by method described in (Janáček, J., Prášil, I.: Quantification of plant frost injury by nonlinear fitting of an s-shaped function. Cryo-Letters vol. 12, 1991, no. 7, 47-52).

The nature of data set [6]: Compound solubility limit in the test medium. The following applies: read-out: highest concentration accessible due to the compound solubility. The class given is physicochemical. An excerpt:
Maintenance of genome integrity is essential for homeostasis and survival as impaired DNA damage response may predispose to grave pathologies such as neurodegenerative and immunodeficiency syndromes, cancer and premature aging (Mistrik et al., 2009). The potential effect of compound 12 on stimulation of DNA breakage was thus further estimated through analysis of phosphorylated histone H2AX (gamma-H2AX) quantified by optimized automated single-cell image analysis (Mistrik et al., 2009). The compound 12 was tested in concentration of 100 μM, the highest concentration accessible due to the compound solubility. Induction of DNA breakage was tested using human U2OS cells. The U2OS cells were cultivated at standard cultivation condition (37° C., 5% CO2). As a positive control, cells were irradiated by roentgen radiation (Baltobloc) (0.5 Gy-2 Gy), one hour later fixed and stained for γ-H2AX, a well established marker of the DNA damage. Parallel samples were treated by compound 12 for 24 hours, fixed and also stained for γ-H2AX. Microscopy analysis followed by computer based signal quantification was performed as described previously (Mistrik et al., 2009).

SMILES strings stand for the structures. Values after ≈ are worked out from the molar mass of the structure shown. Marks after values point to notes of the source that are not given here.

Regarding `COc1cccc(Nc2nc(Cl)nc3c2ncn3C2CCCCO2)c1` (stereo not shown) [compound 12, 2-chloro-6-(3-methoxyanilino)-9-(tetrahydropyran-2-yl)purine], the “mutagenic potential in Ames test” value in data set [1] is recorded as “did not score positively”. The IC50 at 72 h in data set [2] is > 100 µM. Moreover, the “chlorophyll kept in rosettes” value in data set [3] (1 μM) is “around 95%”. For the same molecule, in data set [3] (0.01-10 μM, FIG. 7), the “retention of chlorophyll, activity versus BAP and INCYDE” value is listed as “highest activity in 1 μM concentration”. Also, the root growth result in data set [4] was “positive effect on the root length and lateral branching”. Besides, in data set [5], the “Estimated frost resistence (atrifical frost test) - Letal Temperature LT50” value is listed as −12.3 *; the “Number of emerged plants per sq meter - autumn (11th October, 2010)” value was found to be 60.0 per sq meter; the “Plant height (cm) - autumn (11th October, 2010)” value was 6.6 cm; the “Seed yield (% of control)” value is reported as 103.1 % of control. In data set [5], the “increase of artificially estimated frost tolerance” value is on record as ~5%, the “increase of the final seed yield” value worked out at 3.1% and the “more plants emerged in the same time compared to control” value was ~20%. In data set [5] (15 plants), the “Leafs weight - autumn (22th October)” value was 11.69** and the “Root lenght (cm) - autumn (22th October)” value came out at 14.63 cm. Besides, the “Seed yield (t/ha)” value in data set [5] (mean from 4 plots) came to 5.98 t/ha. The solubility in data set [6] came out at 100 µM (≈ 36 µg/mL).
